# Data from US12171876B2, “Cationic lipid compound, composition containing same and use thereof” (HANGZHOU TIANLONG PHARMACEUTICAL CO., LTD., priority 2022, dated 2024).
# Key:
# [1] = Particle size and polydispersity index (PDI) of lipid nanoparticles by dynamic light scattering; assay type: physicochemical; conditions: LNP formulation of Example 4, cationic lipid/DSPC/cholesterol/DMG-PEG2000 50:10:38.5:1.5; 25° C., 90° scattering angle
# Procedure: The particle size and polydispersity index (PDI) were determined by dynamic light scattering using Malvern laser particle size analyzer.
# 10 μL of the liposome solution was weighed, diluted to 1 mL with RNase-free deionized water, and added to the sample pool. Each sample was measured in triplicate. The measurement conditions were: 90° scattering angle, and 25° C.
# female BALB/C mice = assay: Mouse live imaging test of LNP formulations of Fluc-mRNA; assay type: in vivo; conditions: for expression intensity of Fluc-mRNA in mice over time (in words): 3 h to 72 h after intramuscular injection
# Procedure: A LNP formulation containing 10 μg of Fluc-mRNA was intramuscularly injected into female BALB/C mice aged 4-6 weeks and weighing 17-19 g, and at specific time points (3 h, 6 h, 24 h, 48 h and 72 h) after administration, mice were injected intraperitoneally with a fluorescent imaging substrate. The mice moved freely for 5 minutes, and then the average radiation intensity (corresponding to fluorescence expression intensity) of the protein expressed by the mRNA carried by LNP in mice was detected using the IVIS Spectrum small animal live imager.
# To compare the protein expression and duration in mice of LNP formulations prepared from cationic lipid YK-009 and compound 25, we prepared LNP formulations with Fluc-mRNA contents of 10 μg, 7.5 μg, 5 μg and 2.5 μg (the carrier components of LNP formulations were cationic lipid, neutral lipid, structured lipid and polymer-conjugated lipid with a molar ratio of 50:10:38.5:1.5, wherein the cationic lipid was YK-009 or compound 25). The mouse live imaging test method was the same as above.
# 293T cells = assay: Cell survival rate assay (CCK-8); assay type: cell-based; conditions: 24 hours; for reduction in the cell survival rate compared with YK-009: LNP formulation of Fluc-mRNA
# Procedure: Cell recovery and passage: 293T cells were recovered, cultured in a culture dish, and passaged to the required number of cells.
# Seeding plate: The cells in the culture dish were digested and counted. Cells were spread in a 96-well plate at 10,000 cells per well and in a 12-well plate at 150,000 cells per well. Cells were cultured overnight until the cells adhered to the wall.
# A LNP formulation containing 1.5 μg of Fluc-mRNA (the carrier component of the LNP formulation was cationic lipid, neutral lipid, structured lipid and polymer-conjugated lipid with a molar ratio of 50:10:38.5:1.5, wherein the cationic lipid was listed in Table 1) was added to the cell culture medium of a 96-well plate, and further cultivated for 24 hours. 10 μL of CCK-8 solution was then added to each well, and the culture plate was incubated in an incubator for 1 hour. The absorbance at 450 nm was measured by a microplate reader.
# To compare the cytotoxicity of LNP formulations prepared from cationic lipid YK-009 and compound 25, we prepared LNP formulations with Fluc-mRNA contents of 1.5 μg, 1.125 μg, 0.75 μg and 0.375 μg (the carrier components of LNP formulations were cationic lipid, neutral lipid, structured lipid and polymer-conjugated lipid with a molar ratio of 50:10:38.5:1.5, wherein the cationic lipid was YK-009 or compound 25). The assay method of cell survival rate was the same as above.
# [2] = LNP formulation containing 1.5 μg of Fluc-mRNA
# [3] = mRNA transfection, time not stated
SMILES,PDI (%) [1],Particle size (nm) [1],expression intensity of Fluc-mRNA in mice over time (in words) (female BALB/C mice),Cell survival rate (%) (293T cells; Fluc-mRNA content 0.375 μg),Cell survival rate (%) (293T cells; Fluc-mRNA content 0.75 μg),Cell survival rate (%) (293T cells; Fluc-mRNA content 1.125 μg),Cell survival rate (%) (293T cells; Fluc-mRNA content 1.5 μg),Cell survival rate (%) (293T cells; [2]),"expression in mice, times higher than that for MC3 (female BALB/C mice; [3])","expression in mice, times higher than that for compound 23 (female BALB/C mice; [3])",reduction in the cell survival rate compared with YK-009 (293T cells)
"CCCCCCCCCCCOC(=O)CCCCCN(CCO)CCCCCCCC(=O)OC(CCCCCCCC)CCCCCCCC [Compound 25, reference compound]",23.1%,117.10 nm,decreased rapidly at 6˜48 h,99%,97%,95%,91%,,,,
"CCCCC/C=C\C/C=C\CCCCCCCCC(CCCCCCCC/C=C\C/C=C\CCCCC)OC(=O)CCCN(C)C [MC3, reference compound]",18.3%,205.20 nm,very low at each time,,,,,88%,,,
"CCCCCCCCCCOC(=O)CCCCCN(CCO)CCCCCC(=O)OCC(CCCCCCCC)CCCCCCCC [YK-003, 2-octyldecyl 6-((6-(decyloxy)-6-oxohexyl)(2-hydroxyethyl)amino)hexanoate]",21.3%,119.91 nm,highest expression intensity,,,,,84%,more than 18 times,> 8 times,
"CCCCCCCCCOC(=O)CCCCCCCN(CCO)CCCCCCCCCC(=O)OC(CCCCCCCC)CCCCCCCC [Compound 23, nonyl 8-((2-hydroxyethyl)(10-((9-heptadecyl)oxy)-10-oxodecyl)amino)octanoate, reference compound]",24.4%,114.12 nm,decreased rapidly between 6 h and 48 h,,,,,87%,,,13%
"CCCCCCCCCCOC(=O)CCCN(CCO)CCCCCC(=O)OCC(CCCCCC)CCCCCC [YK-011, 2-hexyloctyl 6-((4-(decyloxy)-4-oxobutyl)(2-hydroxyethyl)amino)hexanoate]",21.2%,173.16 nm,,,,,,98%,,,
"CCCCCCCCCCOC(=O)CCCN(CCO)CCCCCC(=O)OCC(CCCCCCC)CCCCCCC [YK-010, 2-heptylnonyl 6-((4-(decyloxy)-4-oxobutyl)(2-hydroxyethyl)amino)hexanoate]",19.8%,124.46 nm,,,,,,77%,,,23%
"CCCCCCCCCOC(=O)CCCCCCCN(CCO)CCCCCC(=O)OC(CCCCCCCC)CCCCCCCC [Compound 27, nonyl 8-((2-hydroxyethyl)(6-((9-heptadecyl)oxy)-6-oxohexyl)amino)octanoate, reference compound]",13.6%,178.85 nm,decreased rapidly between 6 h and 48 h,,,,,84%,,,16%
"CCCCCCCCCCOC(=O)CCCN(CCO)CCCCC(=O)OCC(CCCCCCCC)CCCCCCCC [YK-006, 2-octyldecyl 5-((4-(decyloxy)-4-oxobutyl)(2-hydroxyethyl)amino)pentanoate]",22.9%,125.35 nm,,,,,,96%,,,
"CCCCCCCCCCOC(=O)CCCN(CCO)CCCC(=O)OCC(CCCCCCCC)CCCCCCCC [YK-004, 2-octyldecyl 4-((4-(decyloxy)-4-oxobutyl)(2-hydroxyethyl)amino)butyrate]",9.7%,190.65 nm,,,,,,87%,,,
"CCCCCCCCCCCOC(=O)CCCN(CCO)CCCCCC(=O)OCC(CCCCCCCC)CCCCCCCC [YK-001, 2-octyldecyl 6-((4-(undecyloxy)-4-oxobutyl) (2-hydroxyethyl)amino)hexanoate]",10.2%,164.03 nm,,,,,,85%,,,
"CCCCCCCCCCOC(=O)CCCCN(CCO)CCCCCC(=O)OCC(CCCCCCCC)CCCCCCCC [YK-002, 2-octyldecyl 6-((5-(decyloxy)-5-oxopentyl)(2-hydroxyethyl)amino)hexanoate]",27.7%,156.70 nm,,,,,,89%,,,11%
"CCCCCCCCCOC(=O)CCCN(CCO)CCCCCC(=O)OCC(CCCCCCCC)CCCCCCCC [YK-008, 2-octyldecyl 6-((4-(nonyloxy)-4-oxobutyl)(2-hydroxyethyl)amino)hexanoate]",24.4%,205.00 nm,,,,,,91%,,,
"CCCCCCCCCCOC(=O)CCCN(CCO)CCCCCCCC(=O)OC(CCCCCCCC)CCCCCCCC [YK-005, 9-heptadecyl 8-((4-(decyloxy)-4-oxobutyl)(2-hydroxyethyl)amino)octanoate]",17.3%,148.75 nm,,,,,,88%,,,
"CCCCCCCCCCCOC(=O)CCCCCN(CCO)CCCCCC(=O)OCC(CCCCCCCC)CCCCCCCC [YK-007, 2-octyldecyl 6-((2-hydroxyethyl)(6-oxo-6-(undecyloxy)hexyl)amino)hexanoate]",13.6%,178.06 nm,,,,,,96%,,,
